Laboratory results as given in patent US9023843B2, “Antimicrobial compounds and methods of making and using the same” (Melinta Therapeutics, Inc., priority 2009, dated 2015).

Tested on: Eschericia coli strain ATCC25922
Experiment: standard microdilution assay to determine minimum inhibitory concentrations (MICs)
Format: cell-based
Details: Escherichia coli, read-out: E. coli ATCC25922 MIC
Procedure: Minimum inhibitory concentrations (MICs) are determined by the microdilution method, typically in a final volume of 100 microliters, according to protocols outlined by The Clinical and Laboratory Standards Institute [CLSI; formerly the National Committee for Clinical Laboratory Standards (NCCLS)]. See CLSI: Methods for dilution antimicrobial susceptibility tests for bacteria that grow aerobically; approved standard-fifth edition. Wayne, Pa.: NCCLS; 2000. The assays can be also be performed in microtiter trays according to conventional methodologies as published by the CLSI. See CLSI. Methods for Dilution Antimicrobial Susceptibility Tests for Bacteria That Grow Aerobically; Approved Standard-Seventh Edition. CLSI Document M7-A7 [ISBN 1-56238-587-9] CLSI, 940 West Valley Road, Suite 1400, Wayne Pa. 19087-1898 USA, 2006).
The compounds of the present invention were tested for antimicrobial activity. The compounds were run against Eschericia coli strain ATCC25922 using a standard microdilution assay to determine minimum inhibitory concentrations (MICs). […] A “N/A” means that data is unavailable. It will be recognized by one skilled in the art that the compounds can be assessed against other bacterial organisms and that the presentation of data for activity against Eschericia coli is illustrative and in no way is intended to limit the scope of the present invention. The compounds of the present invention can be assayed against a range of other microorganisms depending upon the performance activity desired to be gathered. Furthermore, the “+”, “−”, and “N/A” representation and the selection of a cutoff value of 16 micrograms/ml is also illustrative and in no way is intended to limit the scope of the present invention.

Row | Structure (SMILES) | MIC
1 | COCCN(C(=O)CN1CCC(c2ccc3c(c2)Nc2nc(=O)n(C4CCC(N)CC4)cc2O3)CC1)C1CCNCC1 (stereo not shown) [Compound 1041] | > 16 µg/mL
2 | N=C(N)NCCCN(C(=O)CCN)C1CCC(n2cc3c(nc2=O)Nc2cc(C4CCNCC4)ccc2O3)CC1 (stereo not shown) [Compound 1134] | < 16 µg/mL
3 | O=c1nc2c(cn1C1CCCNCC1)Oc1ccccc1N2 (stereo not shown) [Compound 595] | > 16 µg/mL
4 | NCCCN1CCCC(n2cc3c(nc2=O)Nc2cc(C4CCN(C(=O)CCN)CC4)ccc2O3)CC1 (stereo not shown) [Compound 795] | > 16 µg/mL
5 | NCCCNCc1ccc(-c2cn3c(=O)cc(-c4ccc(OC(F)(F)F)cc4)[nH]c3nc2=O)cc1 [Compound 377] | > 16 µg/mL
6 | NCCCN1CCC(n2cc3c(nc2=O)Nc2cc(C(=O)NCCN4CCC[C@H](N)C4)ccc2O3)CC1 [Compound 798] | > 16 µg/mL
7 | N=C(N)NCCCNC1CCC(n2cc3c(nc2=O)Nc2cc(C4CCN(C(=O)C5(N)CC5)CC4)ccc2O3)CC1 (stereo not shown) [Compound 776] | < 16 µg/mL
8 | N=C(N)NCCCCCN1CCCC(n2cc3c(nc2=O)Nc2ccccc2O3)CC1 (stereo not shown) [Compound 576] | > 16 µg/mL
9 | NCCOc1cccc2c1Nc1nc(=O)n([C@H]3CC[C@H](N)CC3)cc1O2 [Compound 4005c] | > 16 µg/mL
10 | N=C(N)NCCCN1CCC(n2cc3c(nc2=O)Nc2cc(C4CCN(C(=O)Nc5ccc(C(F)(F)F)cc5)CC4)ccc2O3)CC1 [Compound 729] | < 16 µg/mL
11 | N=C(N)NCCCNC1CCC(n2cc3c(nc2=O)Nc2cc(C4=CCNCC4)ccc2O3)CC1 (stereo not shown) [Compound 938] | < 16 µg/mL
12 | NCCCOc1cccc2c1Nc1nc(=O)n([C@H]3CC[C@H](CN)CC3)cc1O2 [Compound 1449] | > 16 µg/mL
13 | NCCCN1CCCC(n2cc3c(nc2=O)Nc2cc(C(=O)N4CCC[C@@H](N)C4)ccc2O3)CC1 (stereo partly shown) [Compound 888] | > 16 µg/mL
14 | Cn1cnc(S(=O)(=O)N2CCC(c3ccc4c(c3)Nc3nc(=O)n(C5CCN(CCCNC(=N)N)CC5)cc3O4)CC2)c1 [Compound 681] | > 16 µg/mL
15 | NCCNC(=O)C1CCC(n2cc3c(nc2=O)Nc2cc(C4CCNCC4)ccc2O3)CC1 (stereo not shown) [Compound 1238] | < 16 µg/mL
16 | NC[C@H]1CC[C@H](n2cc3c(nc2=O)Nc2c(OCCCOCc4ccccc4)cccc2O3)CC1 [Compound 4003c] | > 16 µg/mL
17 | CCn1cc2c(nc1=O)Nc1cc(CNCCCN3CCNCC3)ccc1O2 [Compound 919] | > 16 µg/mL
18 | N=C(N)NCCCN1CCC(n2cc3c(nc2=O)Nc2cc(C(=O)NCc4ccc(Br)cc4)ccc2O3)CC1 [Compound 638] | > 16 µg/mL
19 | N=C(N)NCCCN1CCC(n2cc3c(nc2=O)Nc2cc(C(=O)Nc4ncn[nH]4)ccc2O3)CC1 [Compound 686] | > 16 µg/mL
20 | N=C(N)NCCCNC1CCC(n2cc3c(nc2=O)Nc2cc(C(=O)NCCCN4CCNCC4)ccc2O3)CC1 (stereo not shown) [Compound 732] | < 16 µg/mL
21 | N=C(N)NCCCN1CCCC(n2cc3c(nc2=O)Nc2cc(C(=O)NCCCN4CCOCC4)ccc2O3)CC1 (stereo not shown) [Compound 658] | > 16 µg/mL
22 | NCCCNCc1ccc(-n2cc3c(nc2=O)Nc2ccc(-c4cnc(N5CCOCC5)nc4)cc2O3)cc1 [Compound 400] | > 16 µg/mL
23 | N=C(N)NCCCN1CCCC(n2cc3c(nc2=O)Nc2cc(C(=O)NCCC4CCNCC4)ccc2O3)CC1 (stereo not shown) [Compound 708] | < 16 µg/mL

Row | Structure (SMILES) | MIC
24 | N=C(N)NCCS(=O)(=O)NC1CCC(n2cc3c(nc2=O)Nc2cc(C4CCNCC4)ccc2O3)CC1 (stereo not shown) [Compound 1133] | < 16 µg/mL
25 | O=c1nc2c(cn1C1CCC(NCCCN3CCCCC3)CC1)Oc1ccc(C3CCNCC3)cc1N2 (stereo not shown) [Compound 1234] | < 16 µg/mL
26 | Cc1ccc(CCCN(CCCc2ccc(C)o2)C2CCC(n3cc4c(nc3=O)Nc3cc(C5CCNCC5)ccc3O4)CC2)o1 (stereo not shown) [Compound 1198] | > 16 µg/mL
27 | N=C(N)NCCCN1CCC(n2cc3c(nc2=O)Nc2cc(C4CCN(S(=O)(=O)C5CC5)CC4)ccc2O3)CC1 [Compound 694] | > 16 µg/mL
28 | N=C(N)NCCCN1CCC(n2cc3c(nc2=O)Nc2cc(C(=O)Nc4cc(F)c(F)cc4F)ccc2O3)CC1 [Compound 685] | > 16 µg/mL
29 | N=C(N)NCCCNC(=O)C1CCC(n2cc3c(nc2=O)Nc2cc(C4CCNCC4)ccc2O3)CC1 (stereo not shown) [Compound 1236] | < 16 µg/mL
30 | N=C(N)NCCC(=O)N(CCCN)C1CCC(n2cc3c(nc2=O)Nc2cc(C4CCNCC4)ccc2O3)CC1 (stereo not shown) [Compound 1145] | < 16 µg/mL
31 | N=C(N)NCCCN1CCC(n2cc3c(nc2=O)Nc2cc(C(=O)NCCCN4CCOCC4)ccc2O3)CC1 [Compound 642] | > 16 µg/mL
32 | NCCCNCc1ccc(-n2cc3c(nc2=O)Nc2cc(-c4ccc(F)cc4)ccc2O3)cc1 [Compound 402] | > 16 µg/mL
33 | NC1CCC(n2cc3c(nc2=O)Nc2cc(C4CCNCC4)ccc2O3)CC1 (stereo not shown) [Compound 972] | > 16 µg/mL
34 | NCCCNCc1ccc(-c2cn3c(=O)cc(Cc4cccc([N+](=O)[O-])c4)[nH]c3nc2=O)cc1 [Compound 447] | > 16 µg/mL
35 | NCCCNCc1ccc(-n2cc3c(nc2=O)Nc2ccc(-c4ccc(F)cc4)cc2O3)cc1 [Compound 393] | > 16 µg/mL
36 | O=C(CCN1CCNCC1)NC1CCC(n2cc3c(nc2=O)Nc2cc(C4CCNCC4)ccc2O3)CC1 (stereo not shown) [Compound 1192] | > 16 µg/mL
37 | NCCCCCN1CCC(n2cc3c(nc2=O)Nc2ccccc2O3)CC1 [Compound 557] | > 16 µg/mL
38 | NCCCN1CCC(n2cc3c(nc2=O)Nc2cc(C4CCN(C(=O)CN(Cc5ccc(F)c(F)c5)C5CCNCC5)CC4)ccc2O3)CC1 [Compound 748] | > 16 µg/mL
39 | NC1CCC(n2cc3c(nc2=O)Nc2cc(C4CCN(CC(=O)N(CC5CC5(F)F)C5CCNCC5)CC4)ccc2O3)CC1 (stereo not shown) [Compound 1042] | > 16 µg/mL
40 | COc1cc(-c2cc(=O)n3cc(-c4ccc(CNCCCN)cc4)c(=O)nc3[nH]2)cc(OC)c1OC [Compound 379] | > 16 µg/mL
41 | NCCCNCc1ccc(-c2cn3c(=O)cc(Cc4ccc(C(F)(F)F)cc4)[nH]c3nc2=O)cc1 [Compound 367] | > 16 µg/mL
42 | NC1CCC(Cn2cc3c(nc2=O)Nc2cc(C4CCNCC4)ccc2O3)CC1 (stereo not shown) [Compound 1368] | > 16 µg/mL
43 | NCCC(=O)NC1CCC(n2cc3c(nc2=O)Nc2cc(C4CCNCC4)ccc2O3)CC1 (stereo not shown) [Compound 1086] | < 16 µg/mL
44 | N=C(N)NCCCN1CCC(n2cc3c(nc2=O)Nc2cc(C4CCN(C(=O)CN(Cc5ccc(F)c(F)c5)C5CCNCC5)CC4)ccc2O3)CC1 [Compound 749] | < 16 µg/mL
45 | N=C(N)NCCCN1CCC(n2cc3c(nc2=O)Nc2cc(-c4cccc(C(=O)N5CCOCC5)c4)ccc2O3)CC1 [Compound 651] | > 16 µg/mL
46 | NCCCNC(=O)[C@H]1CC[C@H](n2cc3c(nc2=O)Nc2c(OCCN)cccc2O3)CC1 [Compound 4007c] | > 16 µg/mL

Row | Structure (SMILES) | MIC
47 | O=C1OCCN1CCCNC1CCC(n2cc3c(nc2=O)Nc2cc(C4CCNCC4)ccc2O3)CC1 (stereo not shown) [Compound 1213] | > 16 µg/mL
48 | NC[C@H]1CC[C@H](n2cc3c(nc2=O)Nc2c(OCCNC(N)=O)cccc2O3)CC1 [Compound 4001c] | > 16 µg/mL
49 | N=C(N)NCCCN(C(=O)CCNC(=N)N)C1CCC(n2cc3c(nc2=O)Nc2cc(C4CCNCC4)ccc2O3)CC1 (stereo not shown) [Compound 1135] | < 16 µg/mL
50 | NCCCN(CCCN)CC1CCC(n2cc3c(nc2=O)Nc2cc(C4CCNCC4)ccc2O3)CC1 (stereo not shown) [Compound 1370] | < 16 µg/mL
51 | NCCCNCc1ccc(-c2cn3c(=O)cc(Cc4ccc5c(c4)OCO5)[nH]c3nc2=O)cc1 [Compound 380] | > 16 µg/mL
52 | NC[C@H]1CC[C@H](n2cc3c(nc2=O)Nc2c(OCc4ccccc4)cccc2O3)CC1 [Compound 1467] | > 16 µg/mL
53 | N=C(N)NCCCN1CCCC(n2cc3c(nc2=O)Nc2cc(C(=O)NCCc4cnc[nH]4)ccc2O3)CC1 (stereo not shown) [Compound 707] | < 16 µg/mL
54 | NCCCN1CCC(n2cc3c(nc2=O)N[C@@H]2CCCC[C@H]2O3)CC1 [Compound 929] | > 16 µg/mL
55 | N[C@H]1CCCN(CCNCc2ccc3c(c2)Nc2nc(=O)n(C4CCCNCC4)cc2O3)C1 (stereo partly shown) [Compound 921] | > 16 µg/mL
56 | N=C(N)NCCNC(=O)C1CCC(n2cc3c(nc2=O)Nc2cc(C4CCNCC4)ccc2O3)CC1 (stereo not shown) [Compound 1237] | < 16 µg/mL
57 | NCCCN1CCCC(n2cc3c(nc2=O)Nc2ccccc2O3)CC1 (stereo not shown) [Compound 598] | > 16 µg/mL
58 | NCCCNC1CCC(n2cc3c(nc2=O)Nc2cc(-c4ccc(C(F)(F)F)nc4)ccc2O3)CC1 (stereo not shown) [Compound 672] | > 16 µg/mL
59 | N=C(N)NCCCN1CCCC(n2cc3c(nc2=O)Nc2cc(-c4ccc(C(F)(F)F)nc4)ccc2O3)CC1 (stereo not shown) [Compound 667] | > 16 µg/mL
60 | CN(C)c1ncc(-c2ccc3c(c2)Nc2nc(=O)n(C4CCN(CCCNC(=N)N)CC4)cc2O3)cn1 [Compound 627] | < 16 µg/mL
61 | NCCCNCc1ccc(-n2cc3c(nc2=O)Nc2cc(-c4cnc(N5CCOCC5)nc4)ccc2O3)cc1 [Compound 440] | > 16 µg/mL
62 | CN1CCN(CCCNC(=O)c2ccc3c(c2)Nc2nc(=O)n(C4CCC(NCCCNC(=N)N)CC4)cc2O3)CC1 (stereo not shown) [Compound 774] | < 16 µg/mL
63 | NCCCN1CCC(n2cc3c(nc2=O)Nc2cc(C(=O)NCCc4ccc(F)cc4)ccc2O3)CC1 [Compound 660] | > 16 µg/mL
64 | NCCCN1CCN(C(=O)Cn2cc3c(nc2=O)Nc2ccccc2O3)CC1 [Compound 392] | > 16 µg/mL
65 | N=C(N)NCCCNC1CCC(n2cc3c(nc2=O)Nc2cc(C4CCNCC4)ccc2O3)CC1 (stereo not shown) [Compound 993] | < 16 µg/mL
66 | NCCCCCN1CCCC(n2cc3c(nc2=O)Nc2ccccc2O3)CC1 (stereo not shown) [Compound 544] | > 16 µg/mL
67 | NCCOc1cccc2c1Nc1nc(=O)n([C@H]3CC[C@H](CN)CC3)cc1O2 [Compound 1427] | > 16 µg/mL
